{"source": "paper PMC4976375", "about": "“Structure of a Highly Active Cephalopod S-crystallin Mutant: New Molecular Evidence for Evolution from an Active Enzyme into Lens-Refractive Protein” (Scientific Reports, 2016)", "key": {"Octopus GST-σ": {"test_system": "T1, Octopus GST-σ", "T1 construct": "gene GST-sigma", "experiment": "GSH-CDNB conjugation, absorbance […] nm", "assay_type": "biochemical, Octopus vulgaris", "conditions": "GSH 10 mM; apparent; read-out: Km,CDNB (mM) ^c"}, "[1]": {"biological_target": "Wild-type S-crystallin (OctS4) of Octopus vulgaris (Octopus vulgaris)", "experiment": "AUC; sedimentation velocity, 20 °C, 42,000 rpm, protein 0.025–1.0 mg/ml in 50 mM phosphate, pH 6.5; continuous c(M) distribution by SEDFIT"}}}
{"compound": "O=[N+]([O-])c1ccc(Cl)c([N+](=O)[O-])c1", "note": "[CDNB, 1-chloro-2,4-dinitrobenzene]", "values": [{"measurement": "Km", "setting": "Octopus GST-σ", "result": "0.47 ± 0.04", "unit": "mM"}]}
{"compound": "Wild-type S-crystallin (OctS4) of Octopus vulgaris (natural protein)", "values": [{"measurement": "stoichiometry N", "setting": "[1]", "result": 2}]}
